pIC50: −log10 of the molar value. Where two headings read alike, the source gives them in different places.
What was measured:
[1] = target: CDK4/Cyclin D1 (Homo sapiens, UniProt P11802); assay: CDK4/cyclin D1 kinase assay (GST-Rb phosphorylation); format: biochemical; details: Table 3; read-out: Average IC50 CDK4 cyclin D1
[2] = target: CDK9/cyclin T1 (Homo sapiens, UniProt P50750); assay: CDK9 assay (CTD peptide substrate); format: biochemical; details: Table 3; read-out: Average IC50 CDK9 cyclin T1
Experimental: (§1) CTD peptide substrate (biotinyl-Ahx-(Tyr-Ser-Pro-Thr-Ser-Pro-Ser)4-NH2; 1-2 mg/mL) and recombinant human CDK7/cyclin H, CDK9/cyclin T1, or CDK9/cyclin K (0.5-2 μg) were incubated for 45 min at 30° C. in the presence of varying amounts of test compound in 20 mM MOPS pH 7.2, 25 mM β-glycerophosphate, 5 mM EGTA, 1 mM DTT, 1 mM sodium vanadate, 15 mM MgCl2, and 100 μM ATP (containing a trace amount of ^32PγATP) in a total volume of 25 μL in a 96-well microtiter plate. The reaction was stopped by placing the plate on ice for 2 min. Avidin (50 μg) was added to each well, and the plate was incubated at room temp for 30 min. The samples were transferred to a 96-well P81 filter plate, and washed (4×200 μL per well) with 75 mM phosphoric acid. Microscint 40 scintillation liquid (50 μL) was added to each well, and the amount of ^32P incorporation for each sample was measured using a Packard Topcount microplate scintillation counter.

[3] = target: CDK1/Cyclin B (Homo sapiens, UniProt P06493); assay: CDK1/cyclin B kinase assay (GST-Rb phosphorylation);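 further: Enzyme: His-tagged CDK1/Cyclin B co-expressed in baculovirus-infected Sf9 insect cells, purified via metal-chelate chromatography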
Experimental: (§2) His-tagged CDK2/Cyclin E and CDK1/Cyclin B may be co-expressed and PKCα singularly expressed in Sf 9 insect cells infected with the appropriate baculovirus constructs. The cells are harvested two days after infection by low speed centrifugation and the proteins purified from the insect cell pellets by Metal-chelate chromatography. Briefly, the insect cell pellet is lysed in Buffer A (10 mM Tris-HCl, pH 8.0, 150 mM NaCl, 0.02% NP40 and 5 mM β-marcaptoethanol, 1 mM NaF. 1 mM Na3VO4 and Protease Inhibitors Coctail (Sigma) containing AEBSF, pepstatin A, E 64, bestatin, leupeptin) by sonication. The soluble fraction is cleared by centrifugation and loaded onto Ni-NTA-Agarose (Quiagen). Non bound proteins were washed off with 300 mM NaCl, 5-15 mM Imidazole in Buffer A and the bound proteins eluted with 250 mM Imidazole in Buffer A. The purified proteins are extensively dialyzed against Storage buffer (20 mM HEPES pH 7.4, 50 mM NaCl, 2 mM DTT, 1 mM EDTA, 1 mM EGTA, 0.02% NP40, 10% v/v Glycerol) aliquoted and stored at −70° C.

[4] = target: T1, CDK2/Cyclin E (Homo sapiens, UniProt P24941); assay: CDK2/cyclin E kinase assay (GST-Rb phosphorylation); format: biochemical; details: Table 3; read-out: Average IC50 CDK2 cyclin E1;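 further: enzyme source: His-tagged CDK2/cyclin E complex co-expressed recombinantly in Sf9 insect cells using baculovirus constructs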
T1 construct: His; made in house; host or cells: Sf9 insect cells (baculovirus)
Experimental: as §2

[5] = target: CDK7/cyclin H (Homo sapiens, UniProt P50613); assay: CDK7 assay (CTD peptide substrate); format: biochemical
Experimental: as §1

[6] = Table 3, read-out: Average IC50 CDK7 cyclin H

Chain of CDK1/Cyclin B (P06493 whole entry, species assumed): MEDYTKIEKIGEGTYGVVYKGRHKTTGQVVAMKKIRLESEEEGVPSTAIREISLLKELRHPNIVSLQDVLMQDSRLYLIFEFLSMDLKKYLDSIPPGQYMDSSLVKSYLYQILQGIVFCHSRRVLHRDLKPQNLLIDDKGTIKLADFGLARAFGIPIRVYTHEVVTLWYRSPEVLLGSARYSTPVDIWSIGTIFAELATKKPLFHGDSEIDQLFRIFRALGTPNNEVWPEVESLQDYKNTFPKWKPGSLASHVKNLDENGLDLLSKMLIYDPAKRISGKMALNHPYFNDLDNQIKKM
Chain of CDK1/Cyclin B (P14635 whole entry partner, species assumed): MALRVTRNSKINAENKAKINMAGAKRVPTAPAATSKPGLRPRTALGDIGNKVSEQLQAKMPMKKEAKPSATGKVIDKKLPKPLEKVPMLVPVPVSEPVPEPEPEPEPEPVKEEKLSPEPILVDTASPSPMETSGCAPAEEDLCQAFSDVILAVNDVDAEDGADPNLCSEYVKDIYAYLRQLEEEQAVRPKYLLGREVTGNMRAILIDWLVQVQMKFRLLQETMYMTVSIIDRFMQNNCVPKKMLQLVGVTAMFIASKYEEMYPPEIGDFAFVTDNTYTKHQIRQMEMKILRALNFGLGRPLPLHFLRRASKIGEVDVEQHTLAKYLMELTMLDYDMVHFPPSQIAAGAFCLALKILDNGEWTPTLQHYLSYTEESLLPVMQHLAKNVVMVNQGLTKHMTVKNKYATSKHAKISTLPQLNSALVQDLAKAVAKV
Chain of CDK7/cyclin H (P50613 whole entry): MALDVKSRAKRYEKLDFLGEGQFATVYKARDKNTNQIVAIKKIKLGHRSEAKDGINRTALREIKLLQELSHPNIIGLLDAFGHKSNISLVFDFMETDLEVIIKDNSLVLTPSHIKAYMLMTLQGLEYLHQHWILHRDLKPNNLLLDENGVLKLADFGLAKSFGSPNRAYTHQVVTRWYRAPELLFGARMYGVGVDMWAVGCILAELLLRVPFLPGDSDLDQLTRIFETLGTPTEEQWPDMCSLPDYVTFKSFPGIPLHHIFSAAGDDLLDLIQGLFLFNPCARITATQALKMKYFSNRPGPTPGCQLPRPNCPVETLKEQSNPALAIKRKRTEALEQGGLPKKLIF
Chain of CDK7/cyclin H (P51946 whole entry partner): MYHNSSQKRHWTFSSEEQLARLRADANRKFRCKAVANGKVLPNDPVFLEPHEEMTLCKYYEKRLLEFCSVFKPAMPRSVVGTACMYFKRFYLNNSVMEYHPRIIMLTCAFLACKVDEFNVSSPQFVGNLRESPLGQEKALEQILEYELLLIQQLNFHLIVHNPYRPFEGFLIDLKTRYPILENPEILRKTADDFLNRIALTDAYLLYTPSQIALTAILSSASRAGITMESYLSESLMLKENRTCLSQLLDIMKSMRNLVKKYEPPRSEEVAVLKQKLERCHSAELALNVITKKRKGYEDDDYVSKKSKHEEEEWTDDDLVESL
Chain of CDK4/Cyclin D1 (P11802 whole entry, species assumed): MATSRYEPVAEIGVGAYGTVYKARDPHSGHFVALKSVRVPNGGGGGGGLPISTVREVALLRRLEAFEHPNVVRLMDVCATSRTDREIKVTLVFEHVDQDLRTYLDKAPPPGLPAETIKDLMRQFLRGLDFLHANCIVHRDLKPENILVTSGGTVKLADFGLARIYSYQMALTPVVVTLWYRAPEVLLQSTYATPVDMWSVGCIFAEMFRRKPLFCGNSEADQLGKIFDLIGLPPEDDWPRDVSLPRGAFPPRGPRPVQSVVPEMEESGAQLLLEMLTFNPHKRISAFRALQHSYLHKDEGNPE
Chain of CDK4/Cyclin D1 (P24385 whole entry partner, species assumed): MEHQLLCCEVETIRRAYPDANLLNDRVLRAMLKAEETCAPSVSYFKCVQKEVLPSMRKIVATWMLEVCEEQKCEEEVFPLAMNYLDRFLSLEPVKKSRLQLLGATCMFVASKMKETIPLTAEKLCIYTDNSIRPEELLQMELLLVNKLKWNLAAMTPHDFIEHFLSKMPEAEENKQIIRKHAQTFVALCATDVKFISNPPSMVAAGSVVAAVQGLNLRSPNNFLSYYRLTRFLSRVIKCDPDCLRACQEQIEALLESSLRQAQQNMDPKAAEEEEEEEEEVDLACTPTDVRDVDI
Chain of CDK9/cyclin T1 (P50750 whole entry): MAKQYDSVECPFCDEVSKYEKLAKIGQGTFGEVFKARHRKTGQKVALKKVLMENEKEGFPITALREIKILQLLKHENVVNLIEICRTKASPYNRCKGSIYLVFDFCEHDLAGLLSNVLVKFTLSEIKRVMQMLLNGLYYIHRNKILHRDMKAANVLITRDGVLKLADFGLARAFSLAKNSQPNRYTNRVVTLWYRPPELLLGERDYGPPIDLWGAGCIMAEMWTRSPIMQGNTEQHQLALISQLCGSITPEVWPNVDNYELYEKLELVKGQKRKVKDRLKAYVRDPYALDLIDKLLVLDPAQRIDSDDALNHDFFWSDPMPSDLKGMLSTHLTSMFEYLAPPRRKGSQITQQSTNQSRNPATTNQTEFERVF
Chain of CDK9/cyclin T1 (O60563 whole entry partner): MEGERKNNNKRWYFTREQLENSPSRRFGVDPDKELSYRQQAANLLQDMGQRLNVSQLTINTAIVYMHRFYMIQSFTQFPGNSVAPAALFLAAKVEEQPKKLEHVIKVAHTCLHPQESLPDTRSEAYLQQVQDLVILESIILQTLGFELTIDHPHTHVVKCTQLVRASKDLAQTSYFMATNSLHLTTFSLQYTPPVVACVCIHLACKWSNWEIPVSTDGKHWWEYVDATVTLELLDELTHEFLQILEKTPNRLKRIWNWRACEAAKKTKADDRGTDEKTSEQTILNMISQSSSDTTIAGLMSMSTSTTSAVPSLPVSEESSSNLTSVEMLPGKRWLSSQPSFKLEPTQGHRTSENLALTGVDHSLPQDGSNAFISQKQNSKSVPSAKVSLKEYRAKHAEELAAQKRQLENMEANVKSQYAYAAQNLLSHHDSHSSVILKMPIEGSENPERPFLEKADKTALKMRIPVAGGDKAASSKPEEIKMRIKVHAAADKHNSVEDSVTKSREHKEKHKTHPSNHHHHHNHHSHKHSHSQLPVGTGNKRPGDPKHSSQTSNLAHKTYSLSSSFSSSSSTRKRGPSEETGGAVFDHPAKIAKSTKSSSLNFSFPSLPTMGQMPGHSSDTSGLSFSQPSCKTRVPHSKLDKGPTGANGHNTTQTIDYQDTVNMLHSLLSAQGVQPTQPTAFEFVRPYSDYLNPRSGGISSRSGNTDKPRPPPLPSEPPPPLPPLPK

Structure (SMILES)	pIC50 [1]	pIC50 [2]	pIC50 [3]	pIC50 [4]	pIC50 [5, 6]	pIC50 ([5]; Table 4, read-out: Kinase Inhibition IC50 CDK7-cyclin H)
Cc1nc(C)c(-c2ccnc(Nc3ccc(C#N)cc3)n2)s1 [Compound 35, 4-[4-(2,4-Dimethyl-thiazol-5-yl)-pyrimidin-2-ylamino]-benzonitrile]	< 4.30		< 4.30	5.10		
COC(=O)c1ccc(Nc2nccc(-c3sc(C)nc3C)n2)cc1 [Compound 37, 4-[4-(2,4-Dimethyl-thiazol-5-yl)-pyrimidin-2-ylamino]-benzoic acid methyl ester]	4.77		4.42	5.12		
COc1ccc(Nc2nccc(-c3sc(C)nc3C)n2)cc1Cl [Compound 39, (3-Chloro-4-methoxy-phenyl)-[4-(2,4-dimethyl-thiazol-5-yl)-pyrimidin-2-yl]-amine]	< 4.30		4.40	5.25		
CNc1nc(C)c(-c2ccnc(Nc3ccc(O)cc3)n2)s1 [Compound 48, 4-[4-(4-Methyl-2-methylamino-thiazol-5-yl)-pyrimidin-2-ylamino]-phenol]		7.12			6.07	
CCN(CC)CCOc1ccc(Nc2nccc(-c3sc(C)nc3C)n2)cc1 [Compound 122, [4-(2-Diethylamino-ethoxy)-phenyl]-[4-(2,4-dimethyl-thiazol-5-yl)-pyrimidin-2-yl]-amine]					6.36	
Cc1nc(C)c(-c2ccnc(Nc3ccc(N(C)C)c([N+](=O)[O-])c3)n2)s1 [Compound 127, N^4-[4-(2,4-Dimethyl-thiazol-5-yl)-pyrimidin-2-yl]-N^1,N^1-dimethyl-2-nitro-benzene-1,4-diamine]			6.89		5.82	
Cc1nc(N(C)C)sc1-c1ccnc(Nc2ccc(Cl)cc2)n1 [Compound 141, (4-Chloro-phenyl)-[4-(2-dimethylamino-4-methyl-thiazol-5-yl)-pyrimidin-2-yl]-amine]	5.32			5.41		
Cc1nc(N(C)C)sc1-c1ccnc(Nc2ccc(F)cc2)n1 [Compound 142, [4-(2-Dimethylamino-4-methyl-thiazol-5-yl)-pyrimidin-2-yl]-(4-fluoro-phenyl)-amine]	5.40			5.89		
COc1ccc(Nc2nccc(-c3sc(=O)n(C)c3C)n2)cc1 [Compound 157, 5-[2-(4-Methoxy-phenylamino)-pyrimidin-4-yl]-3,4-dimethyl-3H-thiazol-2-one]			6.11			5.70

Further lines, results first:

pIC50 [1]	pIC50 [2]	pIC50 [3]	pIC50 [4]	pIC50 [5, 6]	pIC50 ([5]; Table 4, read-out: Kinase Inhibition IC50 CDK7-cyclin H)	Structure (SMILES)
6.42	7.26	4.85				Cc1nc(C)c(-c2ccnc(Nc3ccc(O)c([N+](=O)[O-])c3)n2)s1 [Compound 32, 4-[4-(2,4-Dimethyl-thiazol-5-yl)-pyrimidin-2-ylamino]-2-nitro-phenol]
5.24			6.17			Cc1nc(N)sc1-c1ccnc(Nc2ccc(C(F)(F)F)cc2)n1 [Compound 110, [4-(2-Amino-4-methyl-thiazol-5-yl)-pyrimidin-2-yl]-(4-trifluoromethyl-phenyl)-amine]
7.15			7.74			Cc1nc(N)sc1-c1ccnc(Nc2cccc(Cl)c2)n1 [Compound 112, [4-(2-Amino-4-methyl-thiazol-5-yl)-pyrimidin-2-yl]-(3-chloro-phenyl)-amine]
				6.23		Cc1nc(N)sc1-c1ccnc(Nc2cccc(I)c2)n1 [Compound 113, [4-(2-Amino-4-methyl-thiazol-5-yl)-pyrimidin-2-yl]-(3-iodo-phenyl)-amine]
5.80			6.00			Cc1nc(N)sc1-c1ccnc(Nc2ccc(Br)cc2)n1 [Compound 120, [4-(2-Amino-4-methyl-thiazol-5-yl)-pyrimidin-2-yl]-(4-bromo-phenyl)-amine]
5.27			6.05			Cc1nc(N(C)C)sc1-c1ccnc(Nc2cccc(Cl)c2)n1 [Compound 143, (3-Chloro-phenyl)-[4-(2-dimethylamino-4-methyl-thiazol-5-yl)-pyrimidin-2-yl]-amine]
< 4.30			6.74			Cc1nc(N)sc1-c1ccnc(Nc2ccc([N+](=O)[O-])cc2)n1 [Compound 151, [4-(2-Amino-4-methyl-thiazol-5-yl)-pyrimidin-2-yl]-(4-nitro-phenyl)-amine]

Reference: patent publication US20050288307A1, “Anti-viral compounds” (priority 2002, published 2005)
